Measurements: patent publication US20250134899A1, “COMBINATION THERAPIES OF WDR5 INHIBITORS AND PD-1 INHIBITORS” (HUYABIO International, LLC, priority 2023, published 2025)

Test system: GL261-Luc cells (syngeneic orthotopic gliomas)
Test: GL261-luc intracranial orthotopic syngeneic brain (glioma) model, survival
Type: in vivo, C57BL/6J mice
Protocol: Female C57BL/6J mice (Beijing VR Laboratory Animal Co., LTD; 6 to 8 weeks old, approximately 18-22 g) were used for intracranial […] orthotopic glioma experiment. To establish syngeneic orthotopic gliomas, 200,000 GL261-Luc cells were stereotactically injected in a 3-μL volume of PBS mixed with 20% Matrigel into the left striatum over 1 minute, 3 mm deep from the cortical surface. Tumor burden was monitored by bioluminescence signal with IVIS imaging by injection 1.5 mg of luciferin per animal prior to imaging. On day 7 after implantation the mice were randomly allocated into treatment arms based on tumor radiance, so that the average tumor radiance in each group was approximately 8.50E+06 photon/sec (Day 0). Animals were treated for 28 days with HBI-2375 (80 mg/kg QD PO), Anti-PD-1 (RMP1-14) antibody (10 mg/kg BIW IP) and/or whole body radiation therapy (2 Gy/day×5 days) in monotherapy, doublet or triplet therapy and as described in the protocol.
The tumor take rate was 100%. Each arm had 10 mice in survival experiments. Study was terminated on Day 85.

With `Cc1c(F)c(N)cc(C(=O)Nc2cc(-n3cc(C(=O)N4CCN(C)CC4)nn3)c(F)cc2N2C[C@@H](C)N(C)[C@@H](C)C2)c1Cl` [HBI-2375, 5-amino-2-chloro-4-fluoro-N-(4-fluoro-5-(4-(4-methylpiperazine-1-carbonyl)-1H-1,2,3-triazol-1-yl)-2-((3S,5R)-3,4,5-trimethylpiperazin-1-yl)phenyl)-3-methylbenzamide] the “% Survival at Day 85” value (Day 85, same dosing) was 10%, the “Median Survival” value (GL261-Luc intracranial, 10 mice per arm, treated 28 days, HBI-2375 80 mg/kg QD PO, anti-PD-1 10 mg/kg BIW IP, radiation 2 Gy/day x 5 days, study terminated Day 85) was 17.5 days and the “survival (in words)” value (in combination with Anti-PD-1 and Radiation, FIG. 1 legend) was “increases survival”. For the same molecule, the “Survival at Day 85” value (surviving mice / mice per arm at Day 85, same dosing) was 1/10.
